The source of these data is patent US9676708B2 (The Johns Hopkins University, priority 2012, dated 2017).

Each structure is given as a SMILES string. Structures can show the parent of a compound that is named as a salt. Where two headings read alike, the source gives them in different places.

The conditions of series [1]: pH 7.4; see U.S. Pat. No. 8,030,356; cited from earlier work.
Series [2] in a line: HNO yield from N2O headspace analysis after complete decomposition, compared to 2BrPA. Conditions: for % HNO: 37° C. in PBS (pH 7.4), N2O headspace analysis, reported in comparison to 2BrPA (SEM 5%; n = 3); for HNO production compared to 2BrPA: in words; for HNO yield: of the amount of HNO from 2BrPA. Format: physicochemical. From the text: As used herein, a compound is a “nitroxyl donor” if it donates nitroxyl under physiological conditions. As used herein, the presently disclosed nitroxyl donors alternatively may be referred to as “a compound” or “the compound.” Preferably, the nitroxyl donor is capable of donating an effective amount of nitroxyl in vivo and has a safety profile indicating the compound would be tolerated by an individual in the amount necessary to achieve a therapeutic effect. One of ordinary skill in the art would be able to determine the safety of administering particular compounds and dosages to live subjects. One of skill in the art also may determine whether a compound is a nitroxyl donor by evaluating whether it releases HNO under physiological conditions. Compounds are easily tested for nitroxyl donation with routine experiments. Although it is impractical to directly measure whether nitroxyl is donated, several tests are accepted for determining whether a compound donates nitroxyl. For example, the compound of interest can be placed in solution, for example in water, in a sealed container. After sufficient time for disassociation has elapsed, such as from several minutes to several hours, the headspace gas is withdrawn and analyzed to determine its composition, such as by gas chromatography and/or mass spectroscopy. If the gas N2O is formed (which occurs by HNO dimerization), the test is positive for nitroxyl donation and the compound is a nitroxyl donor. The level of nitroxyl-donating ability may be expressed as a percentage of a compound's theoretical maximum. A compound that donates a “significant level of nitroxyl” intends a compound that donates 40% or more or 50% or more of its theoretical maximum amount of nitroxyl. In one variation, the compounds for use herein donate 60% or more of the theoretical maximum amount of nitroxyl. In another variation, the compounds for use herein donate 70% or more of the theoretical maximum amount of nitroxyl. In another variation, the compounds for use herein donate 80% or more of the theoretical maximum amount of nitroxyl. In another variation, the compounds for use herein donate 90% or more of the theoretical maximum amount of nitroxyl. In yet another variation, the compounds for use herein donate between about 70% and about 90% of the theoretical maximum amount of nitroxyl. In yet another variation, the compounds for use herein donate between about 85% and about 95% of the theoretical maximum amount of nitroxyl. In yet another variation, the compounds for use herein donate between about 90% and about 95% of the theoretical maximum amount of nitroxyl.

Series [3] in a line: Decomposition of 2-bromo-benzenesulfonamidyl-alkylamino carbonates 2 (2BrPA release) in PBS, UV/vis or HPLC. The series is classed as physicochemical. As for the experimental part:
The donor 2BrPA produces HNO in high yield at pH 7.4 with a single defined half-life of approximately 2 minutes. See U.S. Pat. No. 8,030,356, to Toscano et al., which is incorporated herein by reference in its entirety. Changing (R) on the trigger amine or the spacer length (n) in 2 makes it possible to tune the effective HNO production rate through controlled 2BrPA release (Table 2). Donors 2, with release rates slower than the half-life of 2BrPA, produce HNO at the rate of cyclization. The decomposition products, rates, and HNO production were analyzed and compared to 2BrPA (Table 2).

Series [4] is described as follows: Monitoring of 2d decomposition byproducts by NMR. Format: physicochemical. Conditions: decomposition of 2d. From the text: The cyclized byproduct 3, expected from an HNO forming pathway, from 2d, formed in approximately 60% yield (Scheme 4). The yield of 3 is consistent with the yield of HNO detected (64%) (Table 2). The cyclized product 5 also was identified and formed in approximately 10% yield. Another byproduct formed in approximately 30% yield.

With `O=S(=O)(NO)c1ccccc1Br` [2BrPA, N-hydroxy-2-bromobenzenesulfonamide], the HNO production entry in series [1] is “high yield”.
Turning to `CNCCOC(=O)ONS(=O)(=O)c1ccccc1Br.Cl` [Cmpd 2a, 2-Bromo-benzenesulfonamidyl-2-(methylamino)-ethyl carbonate hydrochlor-ide], the “% HNO” value in series [2] is recorded as 93%.
Take `Cl.O=C(OCCNCc1ccccc1)ONS(=O)(=O)c1ccccc1Br` [Cmpd 2b, 2-Bromo-benzenesulfonamidyl-2-(benzylamino)-ethyl carbonate hydrochlori-de]: in series [2], the “% HNO” value came out at 99%.
Turning to `CC(C)NCCOC(=O)ONS(=O)(=O)c1ccccc1Br` [Cmpd 2c, 2-Bromo-benzenesulfonamidyl-2-(iso-propylamino)-ethyl carbonate hydroc-hloride], the half-life in series [3] (PBS buffer, pH 7.4, text, fast-releasing derivatives (UV/vis values of Table 2), PBS buffer, read-out: half-life) is below 60 s; in series [3] (PBS, pH 7.4, 37° C. in PBS (pH 7.4), determined by UV/vis (SEM ± 5%; n = 3), read-out: t1/2 (converted)) it was 47 s. Besides, the “% HNO” value in series [2] stood at 97%.
For `CC(C)(C)NCCOC(=O)ONS(=O)(=O)c1ccccc1Br` [Cmpd 2d, 2-Bromo-benzenesulfonamidyl-2-(tert-butylamino)-ethyl carbonate hydrochl-oride], in series [4], the “yield of another byproduct” value is “approximately 30%”, the “yield of cyclized byproduct 3 (HNO forming pathway)” value is listed as “approximately 60%” and the “yield of cyclized product 5” value is on record as “approximately 10%”. In addition, the half-life in series [3] (PBS, pH 7.4, 37° C. in PBS (pH 7.4), determined by HPLC (SEM ± 5%; n = 3), read-out: t1/2 (converted)) is 2820 s. Moreover, in series [2], the “% HNO” value came to 64%, the “HNO production compared to 2BrPA” value was “significantly lower” and the HNO yield amounted to 64%.
In the case of `Cl.O=C(OCCNc1ccccc1)ONS(=O)(=O)c1ccccc1Br` [Cmpd 2e, 2-Bromo-benzenesulfonamidyl-2-(phenylamino)-ethyl carbonate hydrochlo-ride], the “% HNO” value in series [2] came out at 91%.
Take `CC(C)NCCCOC(=O)ONS(=O)(=O)c1ccccc1Br.Cl` [Cmpd 2h, 2-Bromo-benzenesulfonamidyl-3-(iso-propylamino)-propyl carbonate hydro-chloride]: in series [2], the “% HNO” value is on record as 30%, the “HNO production compared to 2BrPA” value was “significantly lower” and the HNO yield was 30%.
As for `COc1ccc(NCCOC(=O)ONS(=O)(=O)c2ccccc2Br)cc1` [hydrochloride], the half-life in series [3] (37° C. in PBS (pH 7.4), determined by UV/vis (SEM ± 5%; n = 3), read-out: t1/2 (converted)) is 50 s; in series [3] (pH 7.4, fast-releasing derivatives (UV/vis values of Table 2), PBS buffer, read-out: half-life), 48 s. For the same molecule, the “% HNO” value in series [2] is listed as 93%.
Regarding `O=C(OCCNc1ccc(Cl)cc1)ONS(=O)(=O)c1ccccc1Br` [hydrochloride], the half-life in series [3] (PBS, pH 7.4, slow-releasing derivatives (HPLC values of Table 2), read-out: half-life) stood at 3000 s. Moreover, in series [2], the “% HNO” value came out at 69%, the “HNO production compared to 2BrPA” value was “significantly lower” and the HNO yield came out at 69%.
